The values that follow come from ChEMBL document CHEMBL2074067, “TP-search Transporter Database” (J Physiol, 1994).

This data set has as its target ATP-dependent translocase ABCB1 (Homo sapiens, UniProt P08183). Briefly: TP_TRANSPORTER: transepithelial transport (basal to apical) in Caco-2 cells. It counts as functional, cell-based.

Sequence of ATP-dependent translocase ABCB1 (P08183 whole entry): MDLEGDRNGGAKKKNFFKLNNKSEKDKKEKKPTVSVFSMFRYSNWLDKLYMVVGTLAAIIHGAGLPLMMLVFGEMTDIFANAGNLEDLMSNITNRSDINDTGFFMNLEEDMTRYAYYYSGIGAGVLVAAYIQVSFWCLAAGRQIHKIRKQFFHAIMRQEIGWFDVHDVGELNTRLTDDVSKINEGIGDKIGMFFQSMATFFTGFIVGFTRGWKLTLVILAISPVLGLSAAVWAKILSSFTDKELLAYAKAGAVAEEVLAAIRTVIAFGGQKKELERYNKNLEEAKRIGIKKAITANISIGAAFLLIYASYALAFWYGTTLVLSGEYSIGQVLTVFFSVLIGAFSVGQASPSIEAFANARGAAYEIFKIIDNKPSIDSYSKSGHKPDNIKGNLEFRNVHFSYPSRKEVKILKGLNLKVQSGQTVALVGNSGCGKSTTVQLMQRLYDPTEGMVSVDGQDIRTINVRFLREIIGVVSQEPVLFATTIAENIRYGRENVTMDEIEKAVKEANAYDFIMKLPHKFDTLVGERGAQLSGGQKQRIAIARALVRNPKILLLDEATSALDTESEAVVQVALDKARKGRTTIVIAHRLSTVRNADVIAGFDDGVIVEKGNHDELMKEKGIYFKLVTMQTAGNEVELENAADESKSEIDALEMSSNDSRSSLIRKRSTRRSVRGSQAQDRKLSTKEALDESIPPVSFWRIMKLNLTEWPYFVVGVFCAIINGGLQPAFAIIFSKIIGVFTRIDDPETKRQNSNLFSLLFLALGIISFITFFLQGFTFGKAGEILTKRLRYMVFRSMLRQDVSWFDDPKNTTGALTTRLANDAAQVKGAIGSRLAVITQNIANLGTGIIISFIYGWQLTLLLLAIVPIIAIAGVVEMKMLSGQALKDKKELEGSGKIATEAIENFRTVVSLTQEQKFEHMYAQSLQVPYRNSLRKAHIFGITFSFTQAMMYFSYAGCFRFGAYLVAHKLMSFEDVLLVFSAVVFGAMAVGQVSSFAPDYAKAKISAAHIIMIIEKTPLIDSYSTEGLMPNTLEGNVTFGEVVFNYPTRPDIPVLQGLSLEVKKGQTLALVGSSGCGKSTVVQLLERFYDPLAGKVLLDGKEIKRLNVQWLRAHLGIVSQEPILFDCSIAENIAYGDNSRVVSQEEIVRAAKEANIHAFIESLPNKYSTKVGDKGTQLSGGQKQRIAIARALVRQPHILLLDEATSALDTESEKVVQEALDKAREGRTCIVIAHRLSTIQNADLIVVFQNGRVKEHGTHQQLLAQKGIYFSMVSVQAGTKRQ

On to `CNC(=C[N+](=O)[O-])NCCSCc1ccc(CN(C)C)o1` [RANITIDINE], for which the Activity entry is “substrate [+]”.
